Tests used:
Settings in all cases: human, in vivo
[1] = test system: Presbyopic subjects
[2] = test system: Presbyopic subjects; remark: listed apart in the source
[3] = test system: Presbyopic subjects; remark: listed apart in the source

SMILES: CN(C)C(=O)Oc1cccc([N+](C)(C)C)c1 [compound 1, neostigmine]
- share of the subjects with no tolerance problems [1]: One third
- time until symptoms gradually alleviated [1]: 30 min

SMILES: CNC(=O)Oc1ccc2c(c1)[C@]1(C)CCN(C)[C@@H]1N2C [compound 2, physostigmine]
- effect on miosis, 0.25% eye drops compared with 1.5% eye drops [2]: more than 1.5% compound 2 eye drops
- time at which efficacy reached the highest level [2]: 2 h
- time at which efficacy was still present [2]: ≥ 6 h
- improvement of distance corrected near visual acuity, 0.25% eye drops compared with 1.5% eye drops [3]: more than 1.5% compound 2 eye drops
- duration of eye twitching [1]: 15 min
- duration of eyelid and eyeball twitching [1]: 15 min
- duration of headache [1]: 1 to 2 h
- duration of slightly inflexible eye mobility [1]: 3 to 4 h
- onset of eye twitching [1]: 15 min
- onset of eyelid and eyeball twitching [1]: 15 min
- time until eye irritation disappeared [1]: 10 min
- upper eyelid and eyeball adherence and mobility [1]: The upper eyelid and the eyeball were adhered tightly, and the mobility of the upper eyelid and eyeball was slightly weakened

SMILES: CN(CCCCCCCCCCN(C)C(=O)Oc1cccc([N+](C)(C)C)c1)C(=O)Oc1cccc([N+](C)(C)C)c1 [compound 3, Demecarium bromide]
- duration of eye discomfort and conjunctival congestion [1]: 2 to 3 days
- ocular tolerance [1]: Half of the subjects began to suffer from eye discomfort and conjunctival congestion after several hours
- share of the subjects with no eye discomfort [1]: half

Source: patent US20210308102A1 (priority 2018, published 2021)
